Experimental data taken from patent US8558011B2, “Cold menthol receptor-1 antagonists” (Janssen Pharmaceutica, NV, priority 2010, dated 2013).
Several values for one entry are separate records, joined by “and”; a condition that tells them apart may be missing. Identical values can stand only once.

Target: T1, canine TRPM8 (Canis lupus familiaris, UniProt Q1A7N1)
T1 construct: expressed in transfected cells
Assay: In Vitro Canine TRPM8 Functional Assay (Ca2+-sensitive fluorescent dye, icilin activation, FLIPR/FDSS)
Assay type: cell-based
Conditions: HEK293 cells stably expressing canine TRPM8, icilin activation; for IC50: eight-point dose-response; for % I (0.5 μM): compound at 0.5 μM; for % I (1 μM): compound at 1 μM
Description: The functional activity of compounds of Formula (I) was determined by measuring changes in intracellular calcium concentration using a Ca^2+-sensitive fluorescent dye. The changes in fluorescent signal were monitored by a fluorescence plate reader, either a FLIPR™ (Molecular Devices) or FDSS (Hamamatsu).
HEK293 cells stably expressing canine TRPM8 were routinely grown as monolayers in Dulbecco's minimum essential medium supplemented with 10% FBS, 1 mM L-glutamine, 100 units/mL penicillin, 100 ug/mL streptomycin and 400 μg/mL G418. Cells were maintained in 5% CO2 at 37° C. At 24 hrs prior to assay, cells were seeded in clear-base poly-D-lysine coated 384-well plates (BD Biosciences, NJ, USA) at a density of 5,000 cells per well in culture medium and grown overnight in 5% CO2 at 37° C. On assay day, growth media was removed and cells were loaded with Calcium 3 Dye (Molecular Devices) for 35 min at 37° C., under 5% CO2 and then for 25 min at room temperature and atmosphere. Subsequently, cells were tested for agonist-induced increases in intracellular Ca^2+ levels using FLIPR™ or FDSS. Cells were challenged with a compound of Formula (I) (at varying concentrations) and intracellular Ca^2+ was measured for 5 min prior to the addition of icilin to all wells to achieve a final concentration which produces approximately an 80% maximal response.
Basal FI was subtracted prior to normalizing data to percent of maximal response. Curves were generated using the average of quadruplicate wells for each data point, were analyzed using nonlinear regression of either sigmoidal dose response or sigmoidal dose response (variable slope). Finally, the EC50 and IC50 values were calculated with the best-fit dose curve determined by GraphPad Prism.

T1 sequence (Q1A7N1 1-1104): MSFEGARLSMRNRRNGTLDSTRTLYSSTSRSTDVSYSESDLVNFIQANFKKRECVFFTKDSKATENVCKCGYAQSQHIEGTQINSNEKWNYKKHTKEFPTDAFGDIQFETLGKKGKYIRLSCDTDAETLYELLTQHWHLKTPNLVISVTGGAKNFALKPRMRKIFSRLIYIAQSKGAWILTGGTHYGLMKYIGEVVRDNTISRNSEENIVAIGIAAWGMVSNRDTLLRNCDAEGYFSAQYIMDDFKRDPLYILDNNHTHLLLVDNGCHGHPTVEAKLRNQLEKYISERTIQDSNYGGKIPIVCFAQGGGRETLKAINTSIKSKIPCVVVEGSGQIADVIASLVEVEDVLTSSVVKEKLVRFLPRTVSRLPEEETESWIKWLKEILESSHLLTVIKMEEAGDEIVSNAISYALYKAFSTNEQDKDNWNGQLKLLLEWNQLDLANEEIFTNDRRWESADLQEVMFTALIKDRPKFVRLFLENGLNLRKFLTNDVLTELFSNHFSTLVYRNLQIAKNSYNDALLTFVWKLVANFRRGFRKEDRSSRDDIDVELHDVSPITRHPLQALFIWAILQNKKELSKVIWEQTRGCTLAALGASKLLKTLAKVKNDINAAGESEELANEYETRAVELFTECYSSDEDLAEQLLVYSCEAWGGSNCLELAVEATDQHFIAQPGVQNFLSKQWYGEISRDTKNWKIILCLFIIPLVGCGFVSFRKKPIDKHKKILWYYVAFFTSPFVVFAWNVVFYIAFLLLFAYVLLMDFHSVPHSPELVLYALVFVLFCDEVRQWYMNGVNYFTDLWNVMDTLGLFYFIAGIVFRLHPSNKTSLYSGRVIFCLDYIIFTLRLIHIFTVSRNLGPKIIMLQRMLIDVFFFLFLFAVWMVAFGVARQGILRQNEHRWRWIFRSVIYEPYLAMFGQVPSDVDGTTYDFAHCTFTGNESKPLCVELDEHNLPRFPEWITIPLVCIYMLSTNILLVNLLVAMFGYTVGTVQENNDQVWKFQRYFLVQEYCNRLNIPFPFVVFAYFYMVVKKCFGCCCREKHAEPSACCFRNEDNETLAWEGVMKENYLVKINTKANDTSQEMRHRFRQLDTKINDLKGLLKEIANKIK

| Compound | IC50 | % I (0.5 μM) | % I (1 μM) |
| --- | --- | --- | --- |
| CC(C)OP(=O)(OC(C)C)C(Cc1cccc(Cl)c1)c1sc2ccccc2c1Br (stereo not drawn) [Cpd 166] | 18 nM and 14 nM | 102% | 103% |
| CC(C)OP(=O)(OC(C)C)C(Cc1ccc(Cl)c(C(F)(F)F)c1)c1sc2ccccc2c1Cl (stereo not drawn) [Cpd 167] | 97 nM | 104% | – |
| CC(C)OP(=O)(OC(C)C)C(Cc1cccc(C(F)(F)F)c1F)c1sc2ccccc2c1Cl (stereo not drawn) [Cpd 168] | 76 nM | 104% | – |
| CC(C)OP(=O)(OC(C)C)C(Cc1cc(F)cc(C(F)(F)F)c1)c1sc2ccccc2c1Cl (stereo not drawn) [Cpd 169] | 96 nM | 104% | – |
| CC(C)OP(=O)(OC(C)C)C(Cc1cccc(C(F)(F)F)c1)c1sc2ccccc2c1Cl (stereo not drawn) [Cpd 170] | 73 nM | 103% | – |
| CC(C)OP(=O)(OC(C)C)C(Cc1cc(C(F)(F)F)cc(C(F)(F)F)c1)c1sc2ccccc2c1Cl (stereo not drawn) [Cpd 171] | 221 nM | 95% | – |
| CC(C)OP(=O)(OC(C)C)C(Cc1cc(C(F)(F)F)ccc1F)c1sc2ccccc2c1Cl (stereo not drawn) [Cpd 172] | 105 nM | 104% | – |
| CC(C)OP(=O)(OC(C)C)C(Cc1ccccc1C(F)(F)F)c1sc2ccccc2c1Cl (stereo not drawn) [Cpd 173] | 140 nM | 103% | – |
| CCC(C)P(=O)(C(C)CC)C(OCc1ccc(F)c(F)c1)c1sc2ccccc2c1Br (stereo not drawn) [Cpd 204] | 92 nM | – | 100% |
| CC(C)OP(=O)(OC(C)C)C(Cc1ccc(F)c(F)c1)c1oc2cccc(F)c2c1Br (stereo not drawn) [Cpd 205] | 50 nM | – | 101% |
| CCOP(=O)(OCC)C(Cc1ccc(F)c(F)c1)c1oc2cccc(F)c2c1Br (stereo not drawn) [Cpd 206] | 98 nM | – | 100% |
| CC(C)OP(=O)(OC(C)C)C(Cc1ccc(F)c(F)c1)c1sc2ncccc2c1Br (stereo not drawn) [Cpd 207] | 51 nM | 99% | – |
| CCOP(=O)(OCC)C(Cc1ccc(F)c(F)c1)c1sc2ccccc2c1-c1ccsc1 (stereo not drawn) [Cpd 208] | 104 nM | 104% | – |
| CC(C)CCOP(=O)(OCCC(C)C)C(Cc1ccc(F)c(F)c1)c1sc2ccccc2c1Br (stereo not drawn) [Cpd 211] | 95 nM | 97% | – |
| CC(=O)OCCOP(=O)(OCCOC(C)=O)C(Cc1ccc(F)c(F)c1)c1sc2ccccc2c1Br (stereo not drawn) [Cpd 213] | 202 nM | 100% | – |
| CCOP(=O)(OCC)C(Cc1ccc(F)c(F)c1)c1sc2ccccc2c1-c1ccccc1O (stereo not drawn) [Cpd 215] | 85 nM | 101% | – |
| CCOP(=O)(OCC)C(Cc1ccc(F)c(F)c1)c1sc2ccccc2c1-c1ccccc1F (stereo not drawn) [Cpd 216] | 126 nM | 100% | – |
| CCOP(=O)(OCC)C(Cc1ccc(F)c(F)c1)c1sc2ccccc2c1-c1cccc(C(N)=O)c1 (stereo not drawn) [Cpd 218] | 483 nM | 79% | – |
| CCOP(=O)(OCC)C(Cc1ccc(F)c(F)c1)c1sc2ccccc2c1-c1ccc(F)cc1 (stereo not drawn) [Cpd 220] | 207 nM | 101% | – |
| CC(C)OP(=O)(OC(C)C)C(Cc1ccc(F)c(C(F)(F)F)c1)c1sc2cccc(F)c2c1Br (stereo not drawn) [Cpd 222] | 33 nM | 103% | – |

| Compound | IC50 | % I (0.5 μM) | % I (1 μM) |
| --- | --- | --- | --- |
| CCOP(=O)(OCC)C(Cc1ccc(F)c(C(F)(F)F)c1)c1sc2cccc(F)c2c1Br (stereo not drawn) [Cpd 223] | 52 nM | 102% | – |
| CCOP(=O)(OCC)C(Cc1ccc(F)c(F)c1)c1sc2cccc(F)c2c1Br (stereo not drawn) [Cpd 224] | 44 nM | 102% | – |
| CCOP(=O)(OCC)C(Cc1ccc(F)c(O)c1)c1sc2ccccc2c1Br (stereo not drawn) [Cpd 225, [1-(3-Bromo-benzo[b]thiophen-2-yl)-2-(4-fluoro-3-hydroxy-phenyl)-ethyl]-phosphonic acid diethyl ester] | – | 103% | – |
| CCOP(=O)(OCC)C(Cc1c(F)c(F)c(O)c(F)c1F)c1sc2ccccc2c1Br (stereo not drawn) [Cpd 228] | 129 nM | 94% | – |
| CC(C)OP(=O)(OC(C)C)C(Cc1c(F)c(F)c(O)c(F)c1F)c1sc2ccccc2c1Br (stereo not drawn) [Cpd 229] | 156 nM | 95% | – |
| CC(C)OP(=O)(OC(C)C)C(Cc1cccc(O)c1F)c1sc2ccccc2c1Br (stereo not drawn) [Cpd 230] | 10 nM | 97% | – |
| CCOP(=O)(OCC)C(Cc1cc(O)c(Cl)cc1F)c1sc2ccccc2c1Br (stereo not drawn) [Cpd 231] | 122 nM | 98% | – |
| CC(C)OP(=O)(OC(C)C)C(Cc1cc(O)c(Cl)cc1F)c1sc2ccccc2c1Br (stereo not drawn) [Cpd 232] | 63 nM | 99% | – |
| CC(C)OP(=O)(OC(C)C)[C@H](Cc1ccc(F)c(F)c1)c1sc2ccccc2c1Br [Cpd 235, (R)-[1-(3-Bromo-benzo[b]thiophen-2-yl)-2-(3,4-difluoro-phenyl)-ethyl]-phosphonic acid diisopropyl ester] | – | 56% | – |
| CCOP(=O)(OCC)C(Cc1ccc(F)cc1C(F)(F)F)c1sc2ccccc2c1Br (stereo not drawn) [Cpd 245] | 124 nM | 103% | – |
| CCOP(=O)(OCC)C(Cc1ccc(SC)cc1)c1sc2ccccc2c1Br (stereo not drawn) [Cpd 247] | 121 nM | 103% | – |
| CC(C)OP(=O)(OC(C)C)C(Cc1ccc(F)c(Cl)c1)c1sc2ccccc2c1Br (stereo not drawn) [Cpd 248] | 21 nM | 104% | – |
| CCOP(=O)(OCC)C(Cc1ccccc1C(F)(F)F)c1sc2ccccc2c1Cl (stereo not drawn) [Cpd 279] | 291 nM | 97% | – |
| CCOP(=O)(OCC)C(Cc1cccc(C(F)(F)F)c1Cl)c1sc2ccccc2c1Cl (stereo not drawn) [Cpd 280] | 227 nM | 101% | – |
| CCOP(=O)(OCC)C(Cc1cccc(C(F)(F)F)c1F)c1sc2ccccc2c1Cl (stereo not drawn) [Cpd 281] | 131 nM | 102% | – |
| CCOP(=O)(OCC)C(Cc1cc(C(F)(F)F)cc(C(F)(F)F)c1)c1sc2ccccc2c1Cl (stereo not drawn) [Cpd 282] | 235 nM | 100% | – |
| CCOP(=O)(OCC)C(Cc1ccc(SC(F)(F)F)cc1)c1sc2ccccc2c1Cl (stereo not drawn) [Cpd 283] | 125 nM | 103% | – |
| CCOP(=O)(OCC)C(Cc1ccc(F)cc1)c1sc2ccccc2c1Cl (stereo not drawn) [Cpd 284] | 79 nM and 65 nM | 103% and 102% | – |
| CCOP(=O)(OCC)C(Cc1ccc(C(F)(F)F)cc1)c1sc2ccccc2c1Cl (stereo not drawn) [Cpd 285] | 125 nM | 103% | – |
| CCOP(=O)(OCC)C(Cc1cc(C(F)(F)F)ccc1F)c1sc2ccccc2c1Cl (stereo not drawn) [Cpd 286] | 127 nM | 102% | – |

| Compound | IC50 | % I (0.5 μM) | % I (1 μM) |
| --- | --- | --- | --- |
| CCOP(=O)(OCC)C(Cc1ccc(Cl)c(C(F)(F)F)c1)c1sc2ccccc2c1Cl (stereo not drawn) [Cpd 287] | 124 nM | 103% | – |
| CC(C)OP(=O)(OC(C)C)C(Cc1ccc(Cl)cc1)c1sc2ccccc2c1Br (stereo not drawn) [Cpd 288] | 65 nM | 103% | – |
| CC(C)OP(=O)(OC(C)C)C(Cc1ccc(C(F)(F)F)cc1F)c1sc2ccccc2c1Br (stereo not drawn) [Cpd 289] | 51 nM | 103% | – |
| CCOP(=O)(OCC)C(Cc1cccc(Cl)c1)c1sc2ccccc2c1Cl (stereo not drawn) [Cpd 290] | 115 nM | 103% | – |
| CCOP(=O)(OCC)C(Cc1ccc(C(F)(F)F)cc1F)c1sc2ccccc2c1Cl (stereo not drawn) [Cpd 291] | 156 nM | 103% | – |
| CCOP(=O)(OCC)C(Cc1ccc(OC)c(C(F)(F)F)c1)c1sc2ccccc2c1Cl (stereo not drawn) [Cpd 292] | 216 nM | 99% | – |
| CCOP(=O)(OCC)C(Cc1ccc(Cl)cc1)c1sc2ccccc2c1Cl (stereo not drawn) [Cpd 293] | 156 nM | 103% | – |
| CCOP(=O)(OCC)C(Cc1ccc(F)c(C(F)(F)F)c1)c1sc2ccccc2c1Cl (stereo not drawn) [Cpd 294] | 118 nM | 103% | – |
| CCOP(=O)(OCC)C(Cc1cccc(Br)c1)c1sc2ccccc2c1Br (stereo not drawn) [Cpd 295] | 31 nM and 16 nM | 102% and 103% | – |
| CCOP(=O)(OCC)C(Cc1cccc(SC(F)(F)F)c1)c1sc2ccccc2c1Cl (stereo not drawn) [Cpd 296] | 137 nM | 102% | – |
| CCOP(=O)(OCC)C(Cc1ccc(F)c(Cl)c1)c1sc2ccccc2c1Cl (stereo not drawn) [Cpd 297] | 40 nM | 103% | – |
| CCOP(=O)(OCC)C(Cc1ccc(S(=O)(=O)C(F)(F)F)cc1)c1sc2ccccc2c1Cl (stereo not drawn) [Cpd 300] | 89 nM | 103% | – |
| CC(C)OP(=O)(OC(C)C)C(Cc1cccc(OC(F)(F)F)c1)c1sc2ccccc2c1Cl (stereo not drawn) [Cpd 301] | 54 nM | 102% | – |
| CC(C)OP(=O)(OC(C)C)C(Cc1ccc(Cl)c(F)c1)c1sc2ccccc2c1Cl (stereo not drawn) [Cpd 302] | 79 nM | 103% | – |
| CC(C)OP(=O)(OC(C)C)C(Cc1cc(Cl)ccc1F)c1sc2ccccc2c1Cl (stereo not drawn) [Cpd 303] | 49 nM | 102% | – |
| CC(C)OP(=O)(OC(C)C)C(Cc1ccc(SC(F)(F)F)cc1)c1sc2ccccc2c1Cl (stereo not drawn) [Cpd 304] | 28 nM | 102% | – |
| CCOP(=O)(OCC)C(Cc1cc(Cl)ccc1F)c1sc2ccccc2c1Cl (stereo not drawn) [Cpd 305] | 70 nM | 102% | – |
| CC(C)OP(=O)(OC(C)C)C(Cc1ccc(F)cc1)c1sc2ccccc2c1Cl (stereo not drawn) [Cpd 306] | – | 101% and 102% | – |
